System: 743489-274-T-PDC complex spheroid growth
Experiment: Anticancer human tumor 743489-274-T-PDC patient-derived renal cell carcinoma cell line growth inhibition [AhR]
Details: for IC50: curve of first compound; for viability, T/C: stronger effect = lower value
Procedure, shortened: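 Spheroids combined tumor cells with HUVEC endothelial cells and human MSCs as stroma. AhR antagonists were paired with standard or investigational drugs, each dosed in half-log steps down from near clinical Cmax, or from 10 microM where Cmax was unknown.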

[1] = second compound 0.1 µM, first compound 0.0316 µM
[2] = second compound 0.1 µM, first compound 0.1 µM
[3] = second compound 0.316 µM, first compound 0.0316 µM
[4] = second compound 0.316 µM, first compound 0.1 µM
[5] = second compound 1 µM, first compound 0.0316 µM
[6] = second compound 1 µM, first compound 0.1 µM
[7] = second compound 3.16 µM, first compound 0.0316 µM
[8] = second compound 3.16 µM, first compound 0.1 µM
[9] = second compound 10 µM, first compound 0.0316 µM
[10] = second compound 10 µM, first compound 0.1 µM
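Note: spheroids exposed to agents for 7 days before readout.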
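Throughout, for viability, T/C: 100% = DMSO vehicle control wells.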

Q: `CC(C)c1c(-c2ccccc2)nc2c(C#N)c[nH]n2c1=O` + CC(CO)NC(=O)c1cc(-c2ccc(Cl)cc2)nn(-c2cnn(C)c2)c1=O was tested. Which IC50 (second compound 0.1 µM) did it give?
A: > 10000 nM

Q: And the IC50 (second compound 0.316 µM)?
A: > 10000 nM

Q: What about the IC50 (second compound 1 µM) of the same compound?
A: > 10000 nM

Q: What about the IC50 (second compound 3.16 µM) of the same compound?
A: > 10000 nM

Q: What about the IC50 (second compound 10 µM) of the same compound?
A: > 10000 nM

Q: And the viability, T/C [1]?
A: 101%

Q: What about the viability, T/C [2] of the same compound?
A: 96.5%

Q: And the viability, T/C (second compound 0.1 µM, first compound 0.316 µM)?
A: 101%

Q: And the viability, T/C (second compound 0.1 µM, first compound 1 µM)?
A: 111%

Q: And the viability, T/C (second compound 0.1 µM, first compound 3.16 µM)?
A: 93.9%

Q: And the viability, T/C (second compound 0.1 µM, first compound 10 µM)?
A: 102%

Q: What about the viability, T/C [3] of the same compound?
A: 93%

Q: What about the viability, T/C [4] of the same compound?
A: 97.9%

Q: And the viability, T/C (second compound 0.316 µM, first compound 0.316 µM)?
A: 99.2%

Q: What about the viability, T/C (second compound 0.316 µM, first compound 1 µM) of the same compound?
A: 93.2%

Q: And the viability, T/C (second compound 0.316 µM, first compound 3.16 µM)?
A: 90.4%

Q: And the viability, T/C (second compound 0.316 µM, first compound 10 µM)?
A: 102%

Q: And the viability, T/C [5]?
A: 94.7%

Q: And the viability, T/C [6]?
A: 90.3%

Q: And the viability, T/C (second compound 1 µM, first compound 0.316 µM)?
A: 97.5%

Q: And the viability, T/C (second compound 1 µM, first compound 1 µM)?
A: 90.2%

Q: And the viability, T/C (second compound 1 µM, first compound 3.16 µM)?
A: 102%

Q: What about the viability, T/C (second compound 1 µM, first compound 10 µM) of the same compound?
A: 101%

Q: And the viability, T/C [7]?
A: 90%

Q: What about the viability, T/C [8] of the same compound?
A: 99.5%

Q: What about the viability, T/C (second compound 3.16 µM, first compound 0.316 µM) of the same compound?
A: 99.9%

Q: What about the viability, T/C (second compound 3.16 µM, first compound 1 µM) of the same compound?
A: 96.6%

Q: What about the viability, T/C (second compound 3.16 µM, first compound 3.16 µM) of the same compound?
A: 98.3%

Q: And the viability, T/C (second compound 3.16 µM, first compound 10 µM)?
A: 95%

Q: And the viability, T/C [9]?
A: 98.9%

Q: What about the viability, T/C [10] of the same compound?
A: 101%

Q: And the viability, T/C (second compound 10 µM, first compound 0.316 µM)?
A: 99.7%

Q: What about the viability, T/C (second compound 10 µM, first compound 1 µM) of the same compound?
A: 95.7%

Q: And the viability, T/C (second compound 10 µM, first compound 3.16 µM)?
A: 95.1%

Q: What about the viability, T/C (second compound 10 µM, first compound 10 µM) of the same compound?
A: 93.8%

Q: For `CC[C@@]1(O)C(=O)OCc2c1cc1n(c2=O)Cc2cc3c(CN(C)C)c(O)ccc3nc2-1` + Cc1ccccc1N=Nc1ccc(NC(=O)c2ccnn2C)c(C)c1, which IC50 (second compound 0.1 µM) is on record?
A: > 100 nM

Q: And the IC50 (second compound 0.316 µM)?
A: > 100 nM

Q: What about the IC50 (second compound 1 µM) of the same compound?
A: > 100 nM

Q: What about the IC50 (second compound 3.16 µM) of the same compound?
A: > 100 nM

Q: What about the IC50 (second compound 10 µM) of the same compound?
A: > 100 nM

Q: What about the viability, T/C (second compound 0.1 µM, first compound 0.000316 µM) of the same compound?
A: 98.8%

Q: And the viability, T/C (second compound 0.1 µM, first compound 0.001 µM)?
A: 98.7%

Q: And the viability, T/C (second compound 0.1 µM, first compound 0.00316 µM)?
A: 111%

Q: And the viability, T/C (second compound 0.1 µM, first compound 0.01 µM)?
A: 95.8%

Q: What about the viability, T/C [1] of the same compound?
A: 89.3%

Q: And the viability, T/C [2]?
A: 80.9%

Q: What about the viability, T/C (second compound 0.316 µM, first compound 0.000316 µM) of the same compound?
A: 98.2%

Q: And the viability, T/C (second compound 0.316 µM, first compound 0.001 µM)?
A: 105%

Q: What about the viability, T/C (second compound 0.316 µM, first compound 0.00316 µM) of the same compound?
A: 106%

Q: What about the viability, T/C (second compound 0.316 µM, first compound 0.01 µM) of the same compound?
A: 96.6%

Q: What about the viability, T/C [3] of the same compound?
A: 89.3%

Q: And the viability, T/C [4]?
A: 85.9%

Q: What about the viability, T/C (second compound 1 µM, first compound 0.000316 µM) of the same compound?
A: 89.1%

Q: And the viability, T/C (second compound 1 µM, first compound 0.001 µM)?
A: 94%

Q: And the viability, T/C (second compound 1 µM, first compound 0.00316 µM)?
A: 92.6%

Q: And the viability, T/C (second compound 1 µM, first compound 0.01 µM)?
A: 81.1%

Q: And the viability, T/C [5]?
A: 87%

Q: What about the viability, T/C [6] of the same compound?
A: 77.4%

Q: And the viability, T/C (second compound 3.16 µM, first compound 0.000316 µM)?
A: 87.4%

Q: And the viability, T/C (second compound 3.16 µM, first compound 0.001 µM)?
A: 81.2%

Q: What about the viability, T/C (second compound 3.16 µM, first compound 0.00316 µM) of the same compound?
A: 93.3%

Q: And the viability, T/C (second compound 3.16 µM, first compound 0.01 µM)?
A: 90.4%

Q: And the viability, T/C [7]?
A: 90.4%

Q: What about the viability, T/C [8] of the same compound?
A: 79.9%

Q: What about the viability, T/C (second compound 10 µM, first compound 0.000316 µM) of the same compound?
A: 88.9%

Q: What about the viability, T/C (second compound 10 µM, first compound 0.001 µM) of the same compound?
A: 80.7%

Q: And the viability, T/C (second compound 10 µM, first compound 0.00316 µM)?
A: 87.4%

Q: What about the viability, T/C (second compound 10 µM, first compound 0.01 µM) of the same compound?
A: 86.2%

Q: And the viability, T/C [9]?
A: 80.7%

Q: And the viability, T/C [10]?
A: 63.5%

Q: Which IC50 (second compound 0.1 µM) does the source give for `CC(C)CC(NC(=O)C(Cc1ccccc1)NC(=O)c1cnccn1)B(O)O` (stereo not given) + Cc1cncc(-c2nc(NCCc3c[nH]c4ccccc34)c3ncn(C(C)C)c3n2)c1 here?
A: 49.3 nM

Q: What about the IC50 (second compound 0.316 µM) of the same compound?
A: 27.2 nM

Q: And the IC50 (second compound 1 µM)?
A: 21 nM

Q: What about the IC50 (second compound 3.16 µM) of the same compound?
A: 20.9 nM

Q: What about the IC50 (second compound 10 µM) of the same compound?
A: 13.9 nM

Q: What about the viability, T/C (second compound 0.1 µM, first compound 0.000949 µM) of the same compound?
A: 94.6%

Q: And the viability, T/C (second compound 0.1 µM, first compound 0.003 µM)?
A: 96.3%

Q: What about the viability, T/C (second compound 0.1 µM, first compound 0.00949 µM) of the same compound?
A: 106%

Q: What about the viability, T/C (second compound 0.1 µM, first compound 0.03 µM) of the same compound?
A: 75.8%

Q: And the viability, T/C (second compound 0.1 µM, first compound 0.0949 µM)?
A: 16.6%

Q: What about the viability, T/C (second compound 0.1 µM, first compound 0.3 µM) of the same compound?
A: 11.4%

Q: And the viability, T/C (second compound 0.316 µM, first compound 0.000949 µM)?
A: 98.8%

Q: And the viability, T/C (second compound 0.316 µM, first compound 0.003 µM)?
A: 96.9%

Q: What about the viability, T/C (second compound 0.316 µM, first compound 0.00949 µM) of the same compound?
A: 108%

Q: What about the viability, T/C (second compound 0.316 µM, first compound 0.03 µM) of the same compound?
A: 45.2%

Q: And the viability, T/C (second compound 0.316 µM, first compound 0.0949 µM)?
A: 18.4%

Q: What about the viability, T/C (second compound 0.316 µM, first compound 0.3 µM) of the same compound?
A: 10.7%

Q: And the viability, T/C (second compound 1 µM, first compound 0.000949 µM)?
A: 99.8%

Q: And the viability, T/C (second compound 1 µM, first compound 0.003 µM)?
A: 103%

Q: And the viability, T/C (second compound 1 µM, first compound 0.00949 µM)?
A: 93%

Q: What about the viability, T/C (second compound 1 µM, first compound 0.03 µM) of the same compound?
A: 30.3%

Q: What about the viability, T/C (second compound 1 µM, first compound 0.0949 µM) of the same compound?
A: 17.6%

Q: What about the viability, T/C (second compound 1 µM, first compound 0.3 µM) of the same compound?
A: 8.63%

Q: And the viability, T/C (second compound 3.16 µM, first compound 0.000949 µM)?
A: 107%

Q: And the viability, T/C (second compound 3.16 µM, first compound 0.003 µM)?
A: 107%

Q: What about the viability, T/C (second compound 3.16 µM, first compound 0.00949 µM) of the same compound?
A: 102%

Q: What about the viability, T/C (second compound 3.16 µM, first compound 0.03 µM) of the same compound?
A: 25.9%

Q: And the viability, T/C (second compound 3.16 µM, first compound 0.0949 µM)?
A: 13.1%

Q: And the viability, T/C (second compound 3.16 µM, first compound 0.3 µM)?
A: 4.96%

Q: What about the viability, T/C (second compound 10 µM, first compound 0.000949 µM) of the same compound?
A: 124%

Q: And the viability, T/C (second compound 10 µM, first compound 0.003 µM)?
A: 113%

Q: What about the viability, T/C (second compound 10 µM, first compound 0.00949 µM) of the same compound?
A: 73.2%

Q: And the viability, T/C (second compound 10 µM, first compound 0.03 µM)?
A: 2.6%

Q: And the viability, T/C (second compound 10 µM, first compound 0.0949 µM)?
A: 1.14%

Q: What about the viability, T/C (second compound 10 µM, first compound 0.3 µM) of the same compound?
A: 0.75%
